Laboratory results taken from US9518018B2, “3-alkoxy, thioalkyl and amino-4-amino-6-(substituted)picolinates and their use as herbicides” (Dow AgroSciences LLC, priority 2011, dated 2016).

Legend:
Type in all cases: in vivo
[1] = tested on: CYPRO = Cyperus rotundus L. (purple nutsedge); assay: In-water applied herbicidal activity in transplanted paddy rice; details: 21 DAA
Description: (§1) Rice seeds were planted in Sun Gro MetroMix 306 planting mixture, which typically has a pH of 6.0 to 6.8 and an organic matter content of about 30 percent, in plastic plug trays. Seedlings at the second or third leaf stage of growth were transplanted into 650 mL of mud contained in 960 mL non-perforated plastic pots with a surface area of 86.59 cm^2 four days prior to herbicide application. The paddy was created by filling the 2.5 to 3 cm headspace of the pots with water. When required to ensure good germination and healthy plants, a fungicide treatment and/or other chemical or physical treatment was applied. The plants were grown for 4-14 d in a greenhouse with an approximate 14-h photoperiod which was maintained at about 29° C. during the day and 26° C. during the night. Nutrients were added as Osmocote (17:6:10, Nitrogen:Phosphorus:Potassium (N:P:K)+minor nutrients) at 2 grams (g) per cup. Water was added on a regular basis to maintain the paddy flood, and supplemental lighting was provided with overhead metal halide 1000-Watt lamps as necessary. The plants were employed for testing when they reached the second or third true leaf stage. Treatments consisted of compounds 45, 34, and 66. For technical grade compounds, a weighed amount, determined by the highest rate to be tested, was placed in an individual 120 mL glass vial and was dissolved in 20 mL of acetone to obtain concentrated stock solutions. […] The concentrated stock solutions obtained were diluted with 20 mL of an aqueous mixture containing 2.5% Agri-dex crop oil concentrate (v/v). Applications were made by injecting an appropriate amount of the stock solution into the aqueous layer of the paddy. Control plants were treated in the same manner with the solvent blank. All treated plant material received the same concentration of acetone and crop oil concentrate. The treated plants and control plants were placed in a greenhouse as described above and water was added as needed to maintain a paddy flood. After approximately 3 weeks, the condition of the test plants, compared with that of the untreated plants, was determined visually and scored on a scale of 0 to 100 percent where 0 corresponds to no injury and 100 corresponds to complete kill. By applying the well-accepted probit analysis as described by J. Berkson in Journal of the […], 48, 565 (1953) and by D. Finney in “Probit Analysis” Cambridge University Press (1952) or by plotting the mean data and fitting a logarithmic curve to the portion of the data where there was a dose response using Microsoft Excel®, the above data can be used to calculate GR50 and GR90 values, which are defined as growth reduction factors that correspond to the effective dose of herbicide required to kill or control 50 percent or 90 percent, respectively, of a target plant.

[2] = tested on: FIMMI = Fimbristylis miliacea (L.) VAHL (globe fringerush); assay: as above; details: 21 DAA
Description: as §1

[3] = tested on: LEFCH = Leptochloa chinensis (L.) NEES (Chinese sprangletop); assay: as above; details: 21 DAA
Description: as §1

[4] = tested on: LIDDU = Lindernia dubia (L.) PENNELL (low falsepimpernel); assay: as above; details: 21 DAA
Description: as §1

[5] = tested on: AMARE: pigweed, redroot (Amaranthus retroflexus); assay: Pre-emergent Test I herbicidal activity; details: Table 5, 140 g ai/ha
From the text: (§2) Seeds of the desired test plant species were planted in a soil matrix prepared by mixing a loam soil (43 percent silt, 19 percent clay, and 38 percent sand, with a pH of about 8.1 and an organic matter content of about 1.5 percent) and sand in a 70 to 30 ratio. The soil matrix was contained in plastic pots with a surface area of 113 square centimeters. When required to ensure good germination and healthy plants, a fungicide treatment and/or other chemical or physical treatment was applied.
(§3) A weighed amount, determined by the highest rate to be tested, of each test compound was placed in a 25 mL glass vial and was dissolved in 6 mL of a 97:3 v/v (volume/volume) mixture of acetone and DMSO to obtain concentrated stock solutions. […] The stock solutions obtained were diluted with 18 mL of a 0.1% v/v aqueous solution of Tween® 20 surfactant to obtain spray solutions containing the highest application rate. Additional application rates were obtained by serial dilution of 12 mL of the high rate solution into a solution containing 3 mL of 97:3 v/v mixture of acetone and DMSO and 9 mL of the 0.1% v/v aqueous solution of Tween® 20 surfactant to obtain ½×, ¼×, ⅛× and 1/16× rates of the high rate. Compound requirements are based upon a 12 mL application volume at a rate of 187 L/ha. Formulated compounds were applied to the plant material with an overhead Mandel track sprayer equipped with 8002E nozzles calibrated to deliver 187 L/ha over an application area of 0.503 square meters at a spray height of 18 inches ([…]) above the soil surface. Control plants were sprayed in the same manner with the solvent blank.
(§4) The treated pots and control pots were placed in a greenhouse maintained with an approximate 15 hour photoperiod and temperatures of about 23-29° C. during the day and 22-28° C. during the night. Nutrients and water were added on a regular basis and supplemental lighting was provided with overhead metal halide 1000-Watt lamps as necessary. The water was added by top-irrigation. After 20-22 days, the condition of the test plants that germinated and grew as compared with that of the untreated plants that emerged and grew was determined visually and scored on a scale of 0 to 100 percent where 0 corresponds to no injury and 100 corresponds to complete kill or no emergence.

[6] = tested on: CHEAL: lambsquarters (Chenopodium album); assay: Pre-emergent Test I herbicidal activity; details: Table 5, 140 g ai/ha
From the text: as §2, §3, §4

[7] = tested on: EPHHL: poinsettia, wild (Euphorbia heterophylla); assay: Pre-emergent Test I herbicidal activity; details: Table 5, 140 g ai/ha
From the text: as §2, §3, §4

[8] = tested on: SETFA: foxtail, giant (Setaria faberi); assay: Pre-emergent Test I herbicidal activity; details: Table 5, 140 g ai/ha
From the text: as §2, §3, §4

ZEAMX: corn (Zea mays) = assay: Pre-emergent Test I herbicidal activity; details: Table 5, 140 g ai/ha
From the text: as §2, §3, §4

[9] = dose to kill or control 50 percent
[10] = dose to kill or control 90 percent

`COc1c(C(=O)OCc2ccccc2)nc(-c2ccc(Cl)c(OC)c2F)c(F)c1N` [Compound 66, benzyl 4-amino-6-(4-chloro-2-fluoro-3-methoxyphenyl)-5-fluoro-3-methoxypicolinate] was tested, and the “Mean Visual Injury (%)-21 Days After Application CYPRO” value ([1]; 4.38 g ae/ha) was 65%, the “Mean Visual Injury (%)-21 Days After Application CYPRO” value ([1]; 8.75 g ae/ha) was 100% and the “Mean Visual Injury (%)-21 Days After Application CYPRO” value ([1]; 17.5 g ae/ha) was 100%. The “Mean Visual Injury (%)-21 Days After Application CYPRO” value ([1]; 35 g ae/ha) was 100%, the “Mean Visual Injury (%)-21 Days After Application CYPRO” value ([1]; 70 g ae/ha) was 100% and the “GR50 CYPRO” value [1, 9] was less than 4.38 g ae/ha. For the same molecule, the “GR90 CYPRO” value [1, 10] was 7.2 g ae/ha, the “Mean Visual Injury (%)-21 Days After Application FIMMI” value ([2]; 2.19 g ae/ha) was 0% and the “Mean Visual Injury (%)-21 Days After Application FIMMI” value ([2]; 4.38 g ae/ha) was 10%. The “Mean Visual Injury (%)-21 Days After Application FIMMI” value ([2]; 8.75 g ae/ha) was 36%, the “Mean Visual Injury (%)-21 Days After Application FIMMI” value ([2]; 17.5 g ae/ha) was 73% and the “Mean Visual Injury (%)-21 Days After Application FIMMI” value ([2]; 35 g ae/ha) was 100%. For the same molecule, the “Mean Visual Injury (%)-21 Days After Application FIMMI” value ([2]; 70 g ae/ha) was 100%, the “GR50 FIMMI” value [2, 9] was 10.3 g ae/ha and the “GR90 FIMMI” value [2, 10] was 29.7 g ae/ha. For the same molecule, the “Mean Visual Injury (%)-21 Days After Application LEFCH” value ([3]; 2.19 g ae/ha) was 0%, the “Mean Visual Injury (%)-21 Days After Application LEFCH” value ([3]; 4.38 g ae/ha) was 0% and the “Mean Visual Injury (%)-21 Days After Application LEFCH” value ([3]; 8.75 g ae/ha) was 0%. The “Mean Visual Injury (%)-21 Days After Application LEFCH” value ([3]; 17.5 g ae/ha) was 0%, the “Mean Visual Injury (%)-21 Days After Application LEFCH” value ([3]; 35 g ae/ha) was 16% and the “Mean Visual Injury (%)-21 Days After Application LEFCH” value ([3]; 70 g ae/ha) was 100%. For the same molecule, the “GR50 LEFCH” value [3, 9] was 40.9 g ae/ha, the “GR90 LEFCH” value [3, 10] was 71.2 g ae/ha and the “Mean Visual Injury (%)-21 Days After Application LIDDU” value ([4]; 2.19 g ae/ha) was 0%. The “Mean Visual Injury (%)-21 Days After Application LIDDU” value ([4]; 4.38 g ae/ha) was 100%, the “Mean Visual Injury (%)-21 Days After Application LIDDU” value ([4]; 8.75 g ae/ha) was 100% and the “Mean Visual Injury (%)-21 Days After Application LIDDU” value ([4]; 17.5 g ae/ha) was 100%. The “Mean Visual Injury (%)-21 Days After Application LIDDU” value ([4]; 35 g ae/ha) was 100%, the “Mean Visual Injury (%)-21 Days After Application LIDDU” value ([4]; 70 g ae/ha) was 100% and the “GR50 LIDDU” value [4, 9] was less than 4.38 g ae/ha. For the same molecule, the “GR90 LIDDU” value [4, 10] was less than 4.38 g ae/ha.

`COc1c(N)cc(-c2ccc(Cl)cc2)nc1C(=O)O` [Compound 46] was tested, and the “Visual Growth Reduction (%)-21 Days after Application AMARE” value [5] was 95%, the “Visual Growth Reduction (%)-21 Days after Application CHEAL” value [6] was 95% and the “Visual Growth Reduction (%)-21 Days after Application EPHHL” value [7] was 100%. For the same molecule, the “Visual Growth Reduction (%)-21 Days after Application SETFA” value [8] was 100% and the “Visual Growth Reduction (%)-21 Days after Application ZEAMX” value (ZEAMX: corn (Zea mays)) was 0%.
